# Test results: article PMC3465774, “Plant odorants interfere with detection of sex pheromone signals by male Heliothis virescens” (Frontiers in Cellular Neuroscience, 2012)
# Target: T1, HR13 (Heliothis virescens, UniProt Q6A1K1)
# T1 construct: stably expressed, tetracycline-induced, in Flp-In T-REx293/Galpha15 (HEK293) cells; no Orco mentioned
# T1 sequence (Q6A1K1 1-425): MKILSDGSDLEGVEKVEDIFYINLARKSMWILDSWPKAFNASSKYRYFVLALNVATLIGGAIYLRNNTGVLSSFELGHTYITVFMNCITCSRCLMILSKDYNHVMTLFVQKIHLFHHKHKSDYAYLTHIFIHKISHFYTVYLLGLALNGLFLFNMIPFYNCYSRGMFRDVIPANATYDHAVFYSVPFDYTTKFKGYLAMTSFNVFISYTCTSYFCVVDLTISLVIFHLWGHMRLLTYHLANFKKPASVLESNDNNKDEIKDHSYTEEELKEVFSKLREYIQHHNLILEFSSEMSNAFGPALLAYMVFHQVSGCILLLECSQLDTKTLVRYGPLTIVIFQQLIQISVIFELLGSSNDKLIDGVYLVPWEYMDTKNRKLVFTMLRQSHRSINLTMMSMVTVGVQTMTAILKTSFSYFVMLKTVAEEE
# Assay: fura-2 calcium imaging, mixture with Z11-16:Ald
# Format: cell-based
# Conditions: inhibitor of response to 1 nM Z11-16:Ald; no agonism at 100 nM; competitive or allosteric not resolved
structure (smiles),measurement,value
C=CC(C)(O)CCC=C(C)C (stereo not shown) [linalool],"F/F0 of mixture (1, 10, 100 nM)",linalool reduced the pheromone-induced calcium response of HR13 cells in a dose-dependent manner
